Results published in patent US20210129406A1, “DRUG SOLVATES IN THERMAL PROCESSES TO MAKE SOLID DISPERSIONS AT LOWER PROCESSING TEMPERATURES” (BOARD OF REGENTS, THE UNIVERSITY OF TEXAS SYSTEM, priority 2019, published 2021).

Columns and labels:
[1] = Solid-state stability of carbamazepine dihydrate (PXRD) at room temperature, 56% relative humidity; assay type: physicochemical
Description: CBZ dihydrate was prepared by suspending CBZ anhydrate in water for 24 hours.

[2] = cited from earlier work

| Compound | stability of the dihydrate form ([1]; 56% relative humidity at room temperature throughout the whole experiments) | stability of the dihydrate form (PXRD) ([1]; 3 days at room temperature 56% relative humidity) | pKa [2] |
| --- | --- | --- | --- |
| NC(=O)N1c2ccccc2C=Cc2ccccc21 [carbamazepine dihydrate] | stayed stable | stayed stable | – |
| NC(=O)N1c2ccccc2C=Cc2ccccc21 [carbamazepine] | – | – | 13.4 |
